How the values were obtained:
[1] = Administration route study in guinea pigs (Example 5); assay type: in vivo; conditions: for AUC / Cmax / Tmax: guinea pig, blood
Method: This example describes an administration route study in guinea pigs using the same method mentioned in Example 4. In this study, base refers to Zomitriptan.
In this study, five groups of guinea pigs were tested under the following conditions: (1) Group 1 (10 mg base/4 ml, oral route); (2) Group 2 (5 mg base/2 ml, oral route); (3) Group 3 (2 mg base/4 mL, oral route); (4) Group 4 (2.0 mg base/cm^2, transdermal microporation); and (5) Group 5 (2 mg/200 μL, SubQ). The given bioavailability of Tables 6 is relative bioavailability against subcutaneous injection.

[2] = Administration route study in hairless rats (Example 4); assay type: in vivo; conditions: for AUC / Cmax / Tmax: rat, blood
Method: Hairless rats were used as experimental animals. After oral administration of a drug solution (2.0 ml) containing 2.0 mg of zolmitriptan, blood was collected at a desired time, each medicinal component was extracted according to a conventional method, then blood concentration was quantified by high performance liquid chromatography (LC-MS/MS).
Hairless rats were used as experimental animals. After intravenous administration of a drug solution (10 μl) containing 2 mg of zolmitriptan, blood was collected at a desired time, each medicinal component was extracted according to a conventional method, then blood concentration was quantified by high performance liquid chromatography (LC-MS/MS).
Hairless rats were used as experimental animals. After intravenous administration of a drug solution (200 μl) containing 2 mg of zolmitriptan, blood was collected at a desired time, each medicinal component was extracted according to a conventional method, then blood concentration was quantified by high performance liquid chromatography (LC-MS/MS).
Hairless rats were used as experimental animals. A drug patch was affixed on the flank side of skin of experimental animals that had undergone microporation treatment under the desired conditions. In this study, microporation condition of transdermal microporation was 400 pores/cm^2, 5.2 mJ/filament. The administration side was 1 cm^2. During the period where the patch was affixed, and after it had adhered, blood was collected at a desired time, each medicinal component was extracted according to a conventional method, then blood concentration was quantified by high performance liquid chromatography (LC-MS/MS). A Patch formulation of this study was 2 mg Zolmitriptan, sucrose 0.5 mg, AA 4 mg, 1 cm^2 non-woven matrix (EH-1212, WHC=4 mg/cm^2),
The given bioavailability of Table 5 is absolute bioavailability against IV injection.

[3] = Group 1: 10 mg base/4 ml, oral route
[4] = Group 2: 5 mg base/2 ml, oral route
[5] = Group 3: 2 mg base/4 mL, oral route
[6] = topical or ocular, Group 4: 2.0 mg base/cm^2, transdermal microporation
[7] = Group 1: 2 mg zolmitriptan, oral administration
[8] = Group 3: 2 mg zolmitriptan, intravenous injection
[9] = topical or ocular, Group 4: 2 mg zolmitriptan, transdermal microporation (400 pores/cm^2, 5.2 mJ/filament, 1 cm^2)

CN(C)CCc1c[nH]c2ccc(C[C@H]3COC(=O)N3)cc12 [Zolmitriptan]
BA ([1]; Group 1: 10 mg base/4 ml, oral route, relative bioavailability against subcutaneous injection): 16.2%
BA ([1]; Group 2: 5 mg base/2 ml, oral route, relative bioavailability against subcutaneous injection): 8.3%
BA ([1]; Group 3: 2 mg base/4 mL, oral route, relative bioavailability against subcutaneous injection): 4.5%
BA ([1]; Group 4: 2.0 mg base/cm^2, transdermal microporation, relative bioavailability against subcutaneous injection): 84.2%
BA ([1]; Group 5: 2 mg/200 μL, SubQ, relative bioavailability against subcutaneous injection (reference)): 100.0%
AUC [1, 3]: 1.39 µg·h/mL
Cmax [1, 3]: 0.91 µg/mL
Tmax [1, 3]: 26.4 min
AUC [1, 4]: 0.353 µg·h/mL
Cmax [1, 4]: 0.259 µg/mL
Tmax [1, 4]: 33.6 min
AUC [1, 5]: 0.077 µg·h/mL
Cmax [1, 5]: 0.025 µg/mL
Tmax [1, 5]: 19.8 min
AUC ([1]; sc, Group 5: 2 mg/200 μL, SubQ): 1.71 µg·h/mL
Cmax ([1]; sc, Group 5: 2 mg/200 μL, SubQ): 3.88 µg/mL
Tmax ([1]; sc, Group 5: 2 mg/200 μL, SubQ): 5.4 min
Cmax [1, 6]: 0.864 µg/mL
Tmax [1, 6]: 30 min
AUC ([1]; topical or ocular, Group 4: 2.0 mg base/cm^2, transdermal microporation (400 pores/cm^2, 5.2 mJ/filament)): 1.44 µg·h/mL
BA ([2]; Group 1: 2 mg zolmitriptan, oral administration, absolute bioavailability against IV injection): 11.4%
BA ([2]; Group 3: 2 mg zolmitriptan, intravenous injection, absolute bioavailability against IV injection (reference)): 100.0%
BA ([2]; Group 4: 2 mg zolmitriptan, transdermal microporation (400 pores/cm^2, 5.2 mJ/filament, 1 cm^2), absolute bioavailability against IV injection): 71.4%
AUC [2, 7]: 0.227 µg·h/mL
Cmax [2, 7]: 0.074 µg/mL
Tmax [2, 7]: 270 min
AUC [2, 8]: 2 µg·h/mL
Cmax [2, 8]: 5.03 µg/mL
Tmax [2, 8]: 3 min
Cmax [2, 9]: 0.577 µg/mL
Tmax [2, 9]: 37.8 min
AUC ([2]; topical or ocular, Group 4: 2 mg zolmitriptan, transdermal microporation (400 pores/cm^2, 5.2 mJ/filament, 1 cm^2; patch with sucrose 0.5 mg, AA 4 mg)): 1.43 µg·h/mL
